Assay results reported in publication PMC3684244 (Harmful algae, 2013).
Where “and” joins values, the source holds several entries; their conditions need not be identical. Equal entries are not always repeated.

Tests used:
[1] = test system: brevenal site on voltage-sensitive sodium channels (VSSCs), rat brain synaptosomes; format: binding
[2] = biological target: site 5 on voltage-sensitive sodium channels (VSSCs), rat brain synaptosomes; conditions: read-out: Ki for inhibition of [^3H]-PbTx-3 binding
[3] = test system: site 5 on voltage-sensitive sodium channels (VSSCs), rat brain synaptosomes; conditions: cited from earlier work

| Compound | Inhibition of [^3H]-brevenol binding (maximum concentration tested) [1] | also measured |
| --- | --- | --- |
| N=C(N)NC(=O)c1nc(Cl)c(N)nc1N [Amiloride] | No displacement (10 ! M) |  |
| COc1ccc(C(=O)O[C@H]2CC[C@@]3(C)[C@@H]4CC[C@H]5[C@]6(O)C[C@H](O)[C@@]7(O)[C@@H](CN8C[C@@H](C)CC[C@H]8[C@@]7(C)O)[C@]6(O)C[C@@]53O[C@]24O)cc1OC [Veratridine] | No displacement (10 ! M) |  |
| CCN1C[C@]2(COC)[C@H](O)C[C@H](OC)[C@@]34[C@@H]5C[C@@]6(O)[C@H](OC(=O)c7ccccc7)[C@@H]5[C@@](OC(C)=O)([C@@H]([C@H](OC)[C@H]23)[C@@H]14)[C@@H](O)[C@@H]6OC [aconitine] | No displacement (10 ! M) |  |
| NC1=N[C@H](O)[C@H]2[C@H]3O[C@]4(O)O[C@@H]([C@@H](O)[C@@]2(N1)[C@@H]4O)[C@]3(O)CO [Tetrodotoxin] | No displacement (10 ! M) |  |
| CC1(C)[C@H](C(=O)O[C@H](C#N)c2cccc(Oc3ccccc3)c2)[C@@H]1C=C(Br)Br [Deltamethrin] | No displacement (100 ! M) |  |
| C=C/C=C\CC[C@H]1O[C@H]2CC[C@@]3(C)O[C@H]4[C@@H](O)C[C@@]5(C)O[C@@H](CC/C=C(C)/C(C)=C/C=O)[C@@H](C)C[C@H]5O[C@@H]4C[C@@H]3O[C@@H]2CC[C@@]1(C)O [Brevenal, brevenal] |  | Ki [2]: 98 nM; Ki ([1]; read-out: Ki for inhibition of [^3H]-brevenol binding): 75 nM and 74.8 nM; Affinity for inhibiting brevetoxin binding relative to brevetoxins (fold lower) [3]: approximately 100 fold |
